Measured values published in patent publication US20230117034A1, “PYRAZOLOTRIAZINES” (Bayer Aktiengesellschaft, priority 2019, published 2023).

Target: T1, CDK2/CycE (Homo sapiens, UniProt P24941)
T1 construct: purchased ProQinase GmbH (Freiburg, Germany); host or cells: insect cells (Sf9)
Test: CDK2/CycE kinase assay (TR-FRET, 2 mM ATP)
Format: biochemical
Settings: 2 mM ATP (high ATP); median; read-out: CDK2/CyclinE, 2 mM ATP (high ATP), IC50 (median)
Summary of the method: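 GST-tagged human CDK2 and CycE from Sf9 cells, about 10 ng/ml, pre-incubated 15 min at 22 °C with compound in Tris/HCl pH 8.0 buffer. Reaction with 2 mM ATP and 0.75 µM biotinylated peptide for 25 min at 22 °C. Phospho-RB antibody TR-FRET (665/620 nm ratio) read after 1 h; data normalised to no-inhibitor and no-enzyme controls.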

IC50	SMILES
5.51 µM	CC1CN(c2nc(NCc3nc4ccccc4[nH]3)n3ncc(C(C)C)c3n2)CCO1 (racemic) [Example 11, (rac)-N-[(1H-benzimidazol-2-yl)methyl]-2-[2-methylmorpholin-4-yl]-8-(propan-2-yl)pyrazolo[1,5-a][1,3,5]triazin-4-amine]
> 20 µM	CC(C)c1cnn2c(NCc3nc4ccccc4[nH]3)nc(Nc3ccccc3)nc12 [Example 13, N^4-[(1H-benzimidazol-2-yl)methyl]-N^2-phenyl-8-(propan-2-yl)pyrazolo[1,5-a][1,3,5]triazine-2,4-diamine]
2.89 µM	OC1CCN(c2nc(NCc3nc4ccccc4[nH]3)n3ncc(Br)c3n2)CC1 [Example 17, 1-(4-{[(1H-benzimidazol-2-yl)methyl]amino}-8-bromopyrazolo[1,5-a][1,3,5]triazin-2-yl)piperidin-4-ol]
6.29 µM	CN1CCN(c2nc(NCc3nc4ccccc4[nH]3)n3ncc(Br)c3n2)CC1 [Example 18, N-[(1H-benzimidazol-2-yl)methyl]-8-bromo-2-(4-methylpiperazin-1-yl)pyrazolo[1,5-a][1,3,5]triazin-4-amine]
15.9 µM	O=C1CN(c2nc(NCc3nc4ccccc4[nH]3)n3ncc(Br)c3n2)CCN1 [Example 167, 4-(4-{[(1H-benzimidazol-2-yl)methyl]amino}-8-bromopyrazolo[1,5-a][1,3,5]triazin-2-yl)piperazin-2-one]
12.3 µM	C[C@@H]1CN(c2nc(NCc3nc4ccccc4[nH]3)n3ncc(Br)c3n2)CCN1 [Example 168, N-[(1H-benzimidazol-2-yl)methyl]-8-bromo-2-[(3R)-3-methylpiperazin-1-yl]pyrazolo[1,5-a][1,3,5]triazin-4-amine]
> 20 µM	C[C@@H]1CN(c2nc(NCc3nc4c(F)c(F)ccc4[nH]3)n3ncc(C4CC4)c3n2)C[C@H](C)N1 [Example 170, 8-cyclopropyl-N-[(4,5-difluoro-1H-benzimidazol-2-yl)methyl]-2-[(3R,5S)-3,5-dimethylpiperazin-1-yl]pyrazolo[1,5-a][1,3,5]triazin-4-amine]
> 20 µM	Fc1ccc2[nH]c(CNc3nc(N4C[C@@H]5CCCN[C@@H]5C4)nc4c(C5CC5)cnn34)nc2c1F [Example 171, 8-cyclopropyl-N-[(4,5-difluoro-1H-benzimidazol-2-yl)methyl]-2-[(4aS,7aS)-octahydro-6H-pyrrolo[3,4-b]pyridin-6-yl]pyrazolo[1,5-a][1,3,5]triazin-4-amine]
> 20 µM	Fc1ccc2[nH]c(CNc3nc(N4CCOCC4)nc4c(C5CC5)cnn34)nc2c1F [Example 172, 8-cyclopropyl-N-[(4,5-difluoro-1H-benzimidazol-2-yl)methyl]-2-(morpholin-4-yl)pyrazolo[1,5-a][1,3,5]triazin-4-amine]
> 20 µM	Fc1ccc2[nH]c(CNc3nc(N4C[C@@H]5C[C@H]4CO5)nc4c(C5CC5)cnn34)nc2c1F [Example 173, 8-cyclopropyl-N-[(4,5-difluoro-1H-benzimidazol-2-yl)methyl]-2-[(1S,4S)-2-oxa-5-azabicyclo[2.2.1]heptan-5-yl]pyrazolo[1,5-a][1,3,5]triazin-4-amine]
> 20 µM	Fc1ccc2[nH]c(CNc3nc(N4CCNCC4)nc4c(C5CC5)cnn34)nc2c1F [Example 174, 8-cyclopropyl-N-[(4,5-difluoro-1H-benzimidazol-2-yl)methyl]-2-(piperazin-1-yl)pyrazolo[1,5-a][1,3,5]triazin-4-amine]
> 20 µM	C[C@@H]1CN(c2nc(NCc3nc4cc(F)ccc4[nH]3)n3ncc(C4CC4)c3n2)C[C@H](C)N1 [Example 175, 8-cyclopropyl-2-[(3R,5S)-3,5-dimethylpiperazin-1-yl]-N-[(5-fluoro-1H-benzimidazol-2-yl)methyl]pyrazolo[1,5-a][1,3,5]triazin-4-amine]
8.6 µM	Brc1cnn2c(NCc3nc4ccccc4[nH]3)nc(N3CCNC4(CC4)C3)nc12 [Example 176, N-[(1H-benzimidazol-2-yl)methyl]-8-bromo-2-(4,7-diazaspiro[2.5]octan-7-yl)pyrazolo[1,5-a][1,3,5]triazin-4-amine]
> 20 µM	CN(C)[C@H]1CCN(c2nc(NCc3nc4ccccc4[nH]3)n3ncc(Br)c3n2)C1 [Example 177, N-[(1H-benzimidazol-2-yl)methyl]-8-bromo-2-[(3S)-3-(dimethylamino)pyrrolidin-1-yl]pyrazolo[1,5-a][1,3,5]triazin-4-amine]
> 20 µM	CN(C)[C@@H]1CCN(c2nc(NCc3nc4ccccc4[nH]3)n3ncc(Br)c3n2)C1 [Example 178, N-[(1H-benzimidazol-2-yl)methyl]-8-bromo-2-[(3R)-3-(dimethylamino)pyrrolidin-1-yl]pyrazolo[1,5-a][1,3,5]triazin-4-amine]
> 20 µM	CN1CC[C@H]2CN(c3nc(NCc4nc5ccccc5[nH]4)n4ncc(Br)c4n3)C[C@H]21 [Example 179, N-[(1H-benzimidazol-2-yl)methyl]-8-bromo-2-[(3aS,6aS)-1-methylhexahydropyrrolo[3,4-b]pyrrol-5 (1H)-yl]pyrazolo[1,5-a][1,3,5]triazin-4-amine]
> 20 µM	Fc1ccc2[nH]c(CNc3nc(N4C[C@@H]5CCCN[C@@H]5C4)nc4c(C5CC5)cnn34)nc2c1 [Example 180, 8-cyclopropyl-N-[(5-fluoro-1H-benzimidazol-2-yl)methyl]-2-[(4aS, 7aS)-octahydro-6H-pyrrolo[3,4-b]pyridin-6-yl]pyrazolo[1,5-a][1,3,5]triazin-4-amine]
> 20 µM	Fc1ccc2[nH]c(CNc3nc(N4CCOCC4)nc4c(C5CC5)cnn34)nc2c1 [Example 181, 8-cyclopropyl-N-[(5-fluoro-1H-benzimidazol-2-yl)methyl]-2-(morpholin-4-yl)pyrazolo[1,5-a][1,3,5]triazin-4-amine]
> 20 µM	Fc1cccc2[nH]c(CNc3nc(N4CCNCC4)nc4c(C5CC5)cnn34)nc12 [Example 182, 8-cyclopropyl-N-[(4-fluoro-1H-benzimidazol-2-yl)methyl]-2-(piperazin-1-yl)pyrazolo[1,5-a][1,3,5]triazin-4-amine]
> 20 µM	Fc1cccc2[nH]c(CNc3nc(N4C[C@@H]5C[C@H]4CO5)nc4c(C5CC5)cnn34)nc12 [Example 183, 8-cyclopropyl-N-[(4-fluoro-1H-benzimidazol-2-yl)methyl]-2-[(1S,4S)-2-oxa-5-azabicyclo[2.2.1]heptan-5-yl]pyrazolo[1,5-a][1,3,5]triazin-4-amine]
2.72 µM	OC[C@@H]1CCCCN1c1nc(NCc2nc3c(F)c(F)ccc3[nH]2)n2ncc(C3CC3)c2n1 [Example 184, [(2S)-1-(8-cyclopropyl-4-{[(4,5-difluoro-1H-benzimidazol-2-yl)methyl]amino}pyrazolo[1,5-a][1,3,5]triazin-2-yl)piperidin-2-yl]methanol]
> 20 µM	Fc1ccc2[nH]c(CNc3nc(N4C[C@@H]5C[C@H]4CO5)nc4c(C5CC5)cnn34)nc2c1 [Example 185, 8-cyclopropyl-N-[(5-fluoro-1H-benzimidazol-2-yl)methyl]-2-[(1S,4S)-2-oxa-5-azabicyclo[2.2.1]heptan-5-yl]pyrazolo[1,5-a][1,3,5]triazin-4-amine]
> 20 µM	C[C@@H]1CN(c2nc(NCc3nc4c(F)cccc4[nH]3)n3ncc(C4CC4)c3n2)C[C@H](C)N1 [Example 186, 8-cyclopropyl-2-[(3R,5S)-3,5-dimethylpiperazin-1-yl]-N-[(4-fluoro-1H-benzimidazol-2-yl)methyl]pyrazolo[1,5-a][1,3,5]triazin-4-amine]
> 20 µM	Fc1cccc2[nH]c(CNc3nc(N4C[C@@H]5CCCN[C@@H]5C4)nc4c(C5CC5)cnn34)nc12 [Example 187, 8-cyclopropyl-N-[(4-fluoro-1H-benzimidazol-2-yl)methyl]-2-[(4aS,7aS)-octahydro-6H-pyrrolo[3,4-b]pyridin-6-yl]pyrazolo[1,5-a][1,3,5]triazin-4-amine]
15 µM	Fc1cccc2[nH]c(CNc3nc(N4CCOCC4)nc4c(C5CC5)cnn34)nc12 [Example 188, 8-cyclopropyl-N-[(4-fluoro-1H-benzimidazol-2-yl)methyl]-2-(morpholin-4-yl)pyrazolo[1,5-a][1,3,5]triazin-4-amine]
0.761 µM	OC[C@@H]1CCCCN1c1nc(NCc2nc3c(F)cccc3[nH]2)n2ncc(C3CC3)c2n1 [Example 189, [(2S)-1-(8-cyclopropyl-4-{[(4-fluoro-1H-benzimidazol-2-yl)methyl]amino}pyrazolo[1,5-a][1,3,5]triazin-2-yl)piperidin-2-yl]methanol]
1.77 µM	OC[C@@H]1CCCCN1c1nc(NCc2nc3cc(F)ccc3[nH]2)n2ncc(C3CC3)c2n1 [Example 191, [(2S)-1-(8-cyclopropyl-4-{[(5-fluoro-1H-benzimidazol-2-yl)methyl]amino}pyrazolo[1,5-a][1,3,5]triazin-2-yl)piperidin-2-yl]methanol]
4.17 µM	Cc1ccc2[nH]c(CNc3nc(N4C[C@H]5C[C@@H]4CO5)nc4c(Br)cnn34)nc2c1 [Example 192, 8-bromo-N-[(5-methyl-1H-benzimidazol-2-yl)methyl]-2-[(1R,4R)-2-oxa-5-azabicyclo[2.2.1]heptan-5-yl]pyrazolo[1,5-a][1,3,5]triazin-4-amine]
10.8 µM	Cc1ccc2[nH]c(CNc3nc(N4CCOCC4)nc4c(C5CC5)cnn34)nc2c1 [Example 193, 8-cyclopropyl-N-[(5-methyl-1H-benzimidazol-2-yl)methyl]-2-(morpholin-4-yl)pyrazolo[1,5-a][1,3,5]triazin-4-amine]
> 20 µM	Cc1ccc2[nH]c(CNc3nc(N4C[C@@H](C)N[C@@H](C)C4)nc4c(C5CC5)cnn34)nc2c1 [Example 194, 8-cyclopropyl-2-[(3R,5S)-3,5-dimethylpiperazin-1-yl]-N-[(5-methyl-1H-benzimidazol-2-yl)methyl]pyrazolo[1,5-a][1,3,5]triazin-4-amine]
